Reference: article PMC4778124, “A continuous sirtuin activity assay without any coupling to enzymatic or chemical reactions” (Scientific Reports, 2016)
Non-standard residues stand in square brackets, D forms with d. Residues, ends and D or L forms follow the SMILES beside them. Groups on a side chain read outwards from the residue. Lys(thiomyristoyl) = CCCCCCCCCCCCCC(=S)NCCCC[C@H](N)C(=O)O; Tyr(3-NO2) = N[C@@H](Cc1ccc(O)c([N+](=O)[O-])c1)C(=O)O; Aun = NCCCCCCCCCCC(=O)O; 2Abz = Nc1ccccc1C(=O)O

Key:
Assay type in all cases: biochemical
Sirt3 [1] = target: T1, Sirt3 (Homo sapiens, UniProt Q9NTG7); assay: Continuous fluorescence assay, substrate kinetics; conditions: Sirt3 100 nM; fluorescence spectrophotometer (footnote a)
T1 construct: made in house
T1 sequence (Q9NTG7 1-399): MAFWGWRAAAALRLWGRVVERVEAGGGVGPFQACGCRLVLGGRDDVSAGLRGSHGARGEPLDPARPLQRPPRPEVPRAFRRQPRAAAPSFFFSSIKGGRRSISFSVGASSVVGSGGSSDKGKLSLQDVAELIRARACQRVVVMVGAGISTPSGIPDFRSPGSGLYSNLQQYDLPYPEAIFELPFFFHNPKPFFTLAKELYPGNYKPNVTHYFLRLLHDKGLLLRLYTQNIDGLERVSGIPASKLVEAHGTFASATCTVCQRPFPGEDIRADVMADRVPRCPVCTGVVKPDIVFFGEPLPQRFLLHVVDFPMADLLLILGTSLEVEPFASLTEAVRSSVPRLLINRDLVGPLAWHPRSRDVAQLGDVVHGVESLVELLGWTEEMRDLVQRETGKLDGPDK
Experimental: (§1) The fluorescence measurements were performed on a Hitachi F-4500 fluorescence spectrophotometer (Tokyo, Japan) at λEx = 310 nm and λEm = 405 nm (slitEx = 5 nm, slitEm = 2.5 nm, PMT = 700 V for 3, 4 and 5 as well as slitEx = 10 nm, slitEm = 10 nm, PMT = 950 V for 4a). Each reaction mixture contained assay-buffer, 0.5 mM NAD^+ and various peptide concentrations (0.1–100 μM) and was preincubated for 5 minutes at 37 °C. The reaction was started by adding human sirtuin (0.1–0.5 μM) and observed for 5–10 minutes. Product formation could be monitored by increase of relative fluorescence. This signal was converted into product concentration via calibration lines. […] The reaction mixture was analyzed with HPLC, to control if the entire peptide substrate was turned to product. Additionally the mixture was diluted (0.1–25 μM) and measured with Hitachi F-4500 fluorescence spectrophotometer at the same conditions as described above.
(§2) The microtiter plate fluorescence measurements were performed on a Tecan Infinite M200 microplate reader (Maennedorf, Switzerland) at λEx = 320 nm and λEm = 408 nm (lag time 9 μs, integration time […], gain 160, 170 or 182). The reactions (total volume 100 μl) were measured in black low-binding 96-well microtiter plates (NUNC). […] The reaction mixture for the calibration lines was prepared as described for the single fluorescence measurements. […]

Sirt5 = target: T2, Sirt5 (Homo sapiens, UniProt Q9NXA8); assay: Continuous fluorescence assay, substrate kinetics; conditions: Sirt5 500 nM; MTP fluorescence reader (footnote b)
T2 construct: made in house
T2 sequence (Q9NXA8 37-310): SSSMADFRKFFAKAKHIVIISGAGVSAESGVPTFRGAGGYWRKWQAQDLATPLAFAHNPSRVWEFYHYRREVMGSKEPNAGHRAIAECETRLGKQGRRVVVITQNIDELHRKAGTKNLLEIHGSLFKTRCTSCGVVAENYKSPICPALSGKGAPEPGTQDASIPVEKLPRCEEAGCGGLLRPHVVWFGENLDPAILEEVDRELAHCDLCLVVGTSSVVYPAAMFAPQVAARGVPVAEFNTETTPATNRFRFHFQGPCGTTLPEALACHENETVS
Experimental: as §1, §2

Sirt4 = target: T3, Sirt4 (Homo sapiens, UniProt Q9Y6E7); assay: Continuous fluorescence assay, substrate kinetics; conditions: Sirt4 1000 nM; fluorescence spectrophotometer (footnote a)
T3 construct: made in house; host or cells: E. coli BL21 (DE3)
T3 sequence (Q9Y6E7 29-314): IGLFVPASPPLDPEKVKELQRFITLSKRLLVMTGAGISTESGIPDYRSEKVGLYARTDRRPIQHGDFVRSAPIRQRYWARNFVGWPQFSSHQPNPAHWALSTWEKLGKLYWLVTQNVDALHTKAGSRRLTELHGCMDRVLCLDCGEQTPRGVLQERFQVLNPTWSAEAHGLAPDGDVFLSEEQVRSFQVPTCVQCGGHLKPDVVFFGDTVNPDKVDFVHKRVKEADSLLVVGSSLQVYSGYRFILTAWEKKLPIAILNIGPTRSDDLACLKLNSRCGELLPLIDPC
Experimental: as §1, with “The reaction was started by adding human sirtuin (0.1–0.5 μM) and observed for 5–10 minutes.” left out, “lines. The slope of the linear regression of product formation against time yielded the reaction velocity rates in μM/s.” for “lines.”
as §2

Sirt2 = target: T4, Sirt2 (Homo sapiens, UniProt Q8IXJ6); assay: Ki determination with substrate 3, 96-well MTP fluorescence reader; conditions: Sirt2 0.01 µM; varying substrate 3, 500 µM NAD+; read-out: Ki (3)
T4 construct: made in house
T4 sequence (Q8IXJ6 1-389): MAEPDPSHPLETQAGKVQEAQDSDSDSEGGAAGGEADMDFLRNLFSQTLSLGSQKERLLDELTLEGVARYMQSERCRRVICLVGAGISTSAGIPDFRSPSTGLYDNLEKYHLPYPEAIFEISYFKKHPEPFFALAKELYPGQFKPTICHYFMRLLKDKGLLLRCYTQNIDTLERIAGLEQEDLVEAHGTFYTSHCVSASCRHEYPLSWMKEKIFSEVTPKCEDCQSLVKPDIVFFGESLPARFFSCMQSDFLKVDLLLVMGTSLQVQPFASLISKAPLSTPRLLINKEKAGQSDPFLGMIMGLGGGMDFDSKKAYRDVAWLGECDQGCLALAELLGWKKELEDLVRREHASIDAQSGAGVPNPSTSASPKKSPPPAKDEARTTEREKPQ
Experimental: The microtiter plate fluorescence measurements were performed on a Tecan Infinite M200 microplate reader (Maennedorf, Switzerland) at λEx = 320 nm and λEm = 408 nm (lag time 9 μs, integration time […], gain 160, 170 or 182). The reactions (total volume 100 μl) were measured in black low-binding 96-well microtiter plates (NUNC). Assay-buffer, 500 μM NAD^+ and 0.07–200 μM peptide substrate were pre-incubated at 37 °C for 5 min. The reaction was started by adding human sirtuin (0.01–0.5 μM). The signals were converted into product concentration via calibration lines and the resulting data were evaluated as described above (single fluorescence measurement). The determination for the kinetic constants of NAD^+ was performed in the same way, except that the peptide concentration was fixed (5, 25 or 200 μM) and the NAD^+ concentration was varied (10–1500 μM). All measurements were done in duplicates. The reaction mixture for the calibration lines was prepared as described for the single fluorescence measurements. […] The resulting plots were analyzed by a competitive inhibition and non-competitive inhibition model using the program Sigma Plot 8. The linear regression of the apparent KM-values against the corresponding inhibitor concentration yielded the inhibitor constant Ki for competitive inhibition. The Ki for non-competitive inhibition was determined by linear regression of 1/apparent Vmax against the corresponding inhibitor concentration. The negative Ki value can be determined as intersection with the X-axis from these plots.
Supplementary Figure S15. Kinetic characteristics for sirtuin inhibitor 8. The reactions were performed with 0.01 µM Sirt2 /0.1 µM Sirt3 /0.5 µM Sirt6 and 500 µM NAD^+ and varying concentrations of 3 (0.07-100 µM). […] The negative Ki value can be determined as intersection with the X-axis from the Vmax^app-1/I plot.
Supplementary Figure S16. […] The negative Ki value can be determined as intersection with the X-axis from the Vmax^app-1/I plot.
Supplementary Figure S17. […] The negative Ki value can be determined as intersection with the X-axis from the Vmax^app-1/I plot.

Sirt3 [2] = target: T1, Sirt3; assay: as above; conditions: Sirt3 0.1 µM; varying substrate 3, 500 µM NAD+ (saturating)
Experimental: (§3) All measurements were done in duplicates.
(§4) Supplementary Figure S13. […] Data are presented as mean ± s.d. (n=2) and lines represent the Michaelis-Menten-plot (left) and secondary plots (right). The apparent KM or Vmax^app-1 values from v/[S] characteristics were plotted against the corresponding inhibitor concentration.
(§5) Supplementary Figure S15. Kinetic characteristics for sirtuin inhibitor 8. The reactions were performed with 0.01 µM Sirt2 /0.1 µM Sirt3 /0.5 µM Sirt6 and 500 µM NAD^+ and varying concentrations of 3 (0.07-100 µM). […] Data are presented as mean ± s.d. (n=2) and lines represent the Michaelis-Menten-plot (left) and secondary plots (right). The apparent Vmax^app-1 values from v/[S] characteristics were plotted against the corresponding inhibitor concentration.

Sirt6 [3] = target: T5, Sirt6 (Homo sapiens, UniProt Q8N6T7); assay: as above; conditions: Sirt6 0.5 µM; varying substrate 3, 500 µM NAD+ (saturating)
T5 construct: His-tag; made in house; host or cells: E. coli BL21 DE3
T5 sequence (Q8N6T7 whole entry): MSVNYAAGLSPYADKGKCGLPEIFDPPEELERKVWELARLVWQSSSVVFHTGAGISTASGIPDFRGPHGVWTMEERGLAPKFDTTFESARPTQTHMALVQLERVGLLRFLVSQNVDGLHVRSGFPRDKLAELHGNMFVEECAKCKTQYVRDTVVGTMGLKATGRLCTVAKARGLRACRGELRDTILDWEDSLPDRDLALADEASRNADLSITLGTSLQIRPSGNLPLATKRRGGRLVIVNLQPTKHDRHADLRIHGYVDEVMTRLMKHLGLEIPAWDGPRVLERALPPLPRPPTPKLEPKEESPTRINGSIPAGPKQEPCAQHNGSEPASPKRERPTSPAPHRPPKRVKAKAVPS
Experimental: as §3, §4
Supplementary Figure S14. […] The reactions were performed with 0.5 µM Sirt6 and either 500 µM NAD^+ and varying concentrations of 3 (2-100 µM). […] Data are presented as mean ± s.d. (n=2) and lines represent the Michaelis-Menten-plot (left) and secondary plots (right). The apparent Vmax^app-1 values from v/[S] characteristics were plotted against the corresponding inhibitor concentration.
as §5

Sirt6 [4] = target: T5, Sirt6; assay: Isomer specific inhibition by thioxo peptides, HPLC; conditions: substrate 2a, 30 min, 20 °C
Experimental: After 30 min incubation at 20 °C reaction was stopped using 10% TFA solution. Inhibitor solutions were irradiated at 254 nm for 5 min. Separated isomers were applied in concentrations from 1 to 10 μM. The influence of cis content on sirtuin inhibition using fluorescence spectrometer was determined with 500 μM NAD^+, 5 μM 3, 0.1 μM Sirt2 and 0.1 μM 9. Reactions were done at 20 °C with 9 in GS and PSS (after 5 min irradiation at 254 nm). 9 in PSS was applied immediately after irradiation (transfer time ~5 s) and started directly by adding sirtuin. Reactions were measured within 1 min to avoid re-isomerization.
Supplementary Figure S36. Determination of IC50 value of 8 for Sirt6 in GS (?) and PSS (π). Data were fitted with U(%) = Umin(%) + (Umax(%) – Umin(%))/(1+10^(x-logIC50)) with U(%) percental turmover of substrate 2a; Umin(%) lowest turnover of substrate; Umax(%) maximal turnover of substrate (n=3).
Supplementary Figure S37. Inhibition of Sirt6 by 8 (?) and 9 (π).Data were fitted with U(%) = Umin(%) + (Umax(%) – Umin(%))/(1+10^(x-logIC50)) with U(%) percental turmover of substrate; Umin(%) lowest turnover of substrate 2a; Umax(%) maximal turnover of substrate (n=3).
Supplementary Figure S38. Determination of IC50 of 9 for Sirt6 with 72.4 % cis- (π) and 70.3 % (?) trans-content. Measurements were done with 10 µM peptide substrate (big figure) or 30 µM (small figure). Data were fitted with U(%) = Umin(%) + (Umax(%) – Umin(%))/(1+10^(x-logIC50)) with U(%) percental turmover of substrate 2a; Umin(%) lowest turnover of substrate; Umax(%) maximal turnover of substrate (n=3).

Compound: CC(=O)N[C@@H](CCC(=O)O)C(=O)N[C@@H](C)C(=O)N[C@@H](CC(C)C)C(=O)N1CCC[C@H]1C(=O)N[C@@H](CCCCN)C(=O)N[C@@H](CCCCNC(=O)CCCCCCCCCCNC(=O)c1ccccc1N)C(=O)N[C@@H](Cc1ccc(O)c([N+](=O)[O-])c1)C(=O)NCC(=O)NCC(N)=O [peptide 3] (Ac-EALPKK([Aun-2Abz])[Tyr(3-NO2)]GG-NH2)
- Km (Sirt3 [1]): 3.3 ± 0.4 µM
- Km (Sirt5): 46.1 ± 7.2 µM
- Km (Sirt4): 49.5 ± 7.5 µM

Compound: CCCCCCCCCCCCCC(=S)NCCCC[C@H](NC(=O)[C@H](CCCCN)NC(=O)[C@@H]1CCCN1C(=O)[C@H](CC(C)C)NC(=O)[C@H](C)NC(=O)[C@H](CCC(=O)O)NC(C)=O)C(=O)N[C@H](C(=O)NCC(=O)NCC(N)=O)[C@@H](C)O [peptide 8] (Ac-EALPK[Lys(thiomyristoyl)]TGG-NH2)
- Ki (Sirt2): 80 ± 20 nM
- Ki (Sirt3 [2]): 100 ± 20 nM
- Ki (Sirt6 [3]): 400 ± 100 nM
- IC50 (Sirt6 [4]; inhibitor with 2.5% cis isomer (ground state)): 1060 ± 120 nM
- IC50 (Sirt6 [4]; inhibitor with 25% cis isomer (photo-excited state)): 1870 ± 180 nM
